Test results taken from patent US8901118B2, “Compounds and methods for kinase modulation, and indications therefor” (Plexxikon Inc., priority 2010, dated 2014).

Legend:
BCR-NTRK2 BaF3 cells = target: T1, BCR-NTRK2 BaF3 cells (Homo sapiens, UniProt Q16620); test: BaF3 BCR-NTRK2 cell proliferation assay (ATPlite); format: cell-based; conditions: read-out: Inhibition of Cell Proliferation IC50, BCR/BaF3 TrkB
T1 construct: fused on or other part: P11274 (Breakpoint cluster region protein)
Procedure: Compounds are assessed in a variety of cell based assays. For example BaF3 cells engineered with any of BCR-FMS, BCR-KIT, BCR-FLT3, BCR-NTRK1, BCR-NTRK2, and BCR-NTRK3, are used in cell proliferation assays to assess inhibitory activity of Fms, Kit, Flt-3, TrkA, TrkB, and TrkC, respectively. An MV-4-11 (leukemia) cell proliferation assay is used to assess inhibitory activity in Flt-3, and SKNSH (human neuroblastoma) cell proliferation assay is used to assess efficacy of Fms/Trk inhibitors. Additional cells may be assayed similarly to assess the efficacy of Fms/Trk inhibitors, such as MiaPaCa (human pancreatic cancer) and Capan-1 (human pancreatic carcinoma) cells. Reagent and assay conditions are as follows: • BaF3 cells: • Maintained in RPMI containing 10% FBS, 1% PenStrep, 1% NEAA, and 1% L-Glutamine, supplemented with 1 mg/mL G418 and 5% WEHI-CM (or recombinant murine IL-3). • Confluent cells are split 1:50 to 1:100 every 3-4 days. • MV-4-11 cells: • Maintained in Iscove's Modified Dulbecco's Medium containing 10% FBS. • Confluent cells are split 1:4 every 3-4 days. • SKNSH cells: RPMI containing 10% FBS. On day 1, cells are counted, then centrifuged in a conical tube for 5 minutes at 1000 rpm. The supernatant is removed and cells are re-suspended as follows: • BaF3: resuspend in growth media +1 mg/mL G418 (without WEHFIL-3) to 2×10^5 cells/mL. • MV-4-11: resuspend in growth media to 5×10^5 cells/mL. • SKNSH: resuspend in growth media to 2×10^4 cells/mL. The cells are plated (50 μL, 150 μL for SKNSH cells) in each well of a 96-well dish (Corning 3610) and incubated at 37° C. in 5% CO2 overnight, cells plated to a final concentration of cells as follows: • BaF3: 10,000 cells per well. • MV-4-11: 25,000 cells per well. • SKNSH: 3,000 cells per well. On day 2, compound at a maximum concentration of 5 mM is serially diluted 1:3 for a total of 8 point titration with DMSO as a control. A 1 μL aliquot of each dilution point is added to 249 μL growth media and 50 μL is added to a well containing cells, providing 10 μM compound for the maximum concentration point. The cells are incubated for 3 days at 37° C. in 5% CO2. For SKNSH cells, a 0.75 μL aliquot of appropriate dilution in DMSO is added to 150 μL of cells. On day 5, ATPlite 1 step Luminescence Assay System (Perkin Elmer #6016739) is brought to room temperature along with the cell cultures. ATPlite is added to each well as follows: • BaF3: 25 μL per well. • MV-4-11: 40 μL per well. • SKNSH: 20 μL per well. The cells are incubated at room temperature for 10 minutes, then luminescence is read on Safire reader. The measured luminescence correlates directly with cell number, such that the reading as a function of compound concentration is used to determine the IC50 value.
It is understood that the results of these assays may vary as assay conditions are varied. Inhibition levels determined under the conditions described herein represent a relative activity for the compounds tested under the specific conditions employed. The cell based assays are likely to show variability due to the complexity of the system and the sensitivity thereof to any changes in the assay conditions. […] Results for compounds that are tested and show substantially no inhibition below the highest tested concentration are represented as “-” in the tables below. In some instances, the compounds were not tested in all of the assays, or assay results were not valid, as indicated by NA in the tables below.

CYP1A2 = target: T2, CYP1A2 (Homo sapiens, UniProt P05177); test: CYP1A2 inhibition (fluorescent substrate CEC); format: in vitro ADME; conditions: read-out: Cyp IC50 1A2
T2 sequence (P05177 1-516): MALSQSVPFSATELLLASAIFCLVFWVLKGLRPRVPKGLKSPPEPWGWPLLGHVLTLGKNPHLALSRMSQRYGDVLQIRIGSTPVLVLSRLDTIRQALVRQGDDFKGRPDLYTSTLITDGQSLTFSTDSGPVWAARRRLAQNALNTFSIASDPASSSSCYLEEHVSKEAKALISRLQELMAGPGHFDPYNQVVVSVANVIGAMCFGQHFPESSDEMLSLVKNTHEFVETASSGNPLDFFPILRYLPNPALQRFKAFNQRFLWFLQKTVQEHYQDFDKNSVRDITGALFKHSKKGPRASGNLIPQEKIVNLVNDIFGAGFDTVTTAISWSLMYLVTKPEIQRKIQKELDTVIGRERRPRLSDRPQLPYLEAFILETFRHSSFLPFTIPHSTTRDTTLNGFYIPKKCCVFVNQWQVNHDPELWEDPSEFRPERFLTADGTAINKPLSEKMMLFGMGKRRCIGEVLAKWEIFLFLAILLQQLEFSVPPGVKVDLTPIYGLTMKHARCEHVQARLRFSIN
Procedure: (§1) CYP (Cytochrome P450) enzymes are the major drug metabolizing enzymes present in the liver. The inhibition of CYP enzyme activity (IC50) for each of CYP1A2, CYP2C19, CYP2C9, CYP2D6, CYP3A4(BFC) and CYP3A4(BQ) is determined for compounds, where inhibition of metabolism of a known substrate leads to a decrease in the fluorescence of the metabolized product. The fluorescence of the product is monitored as a function of compound concentration. Compounds are dissolved in DMSO to a concentration of 100 mM. These are diluted 1 μL into 82 μL of acetonitrile. An 11 μL aliquot of this solution is then added to 204 μL of cofactor mix (1.3% NADPH Regeneration system Solution A, 1.04% NADPH Regeneration system Solution B from BD Biosciences, 5% acetonitrile and 0.05% DMSO). These are then serially diluted 1:1 (160 μL to 160 μL co-factor mix) for a total of 10 points. A 10 μL aliquot of this final mixture is dispensed into 384 well assay plates and incubated for 10 minutes at 37° C. […] Assay plates are incubated at 37° C. (CYP1A2-15 min; CYP2C9-45 min; CYP2C19, 2D6 and 3A4-30 min) and read in a Tecan Safire 2 plate reader (CYP1A2, 2C19 and 3A4 409 ex/460 em; CYP2C9 and 2D6 409 ex/530 em). The signal versus compound concentration is used to determine the IC50. The enzymes and substrates for this assay are obtained from BD Biosciences.

CYP3A4(BQ) = CYP3A4(BQ) (Homo sapiens, UniProt P08684); test: CYP3A4(BQ) inhibition; format: in vitro ADME; conditions: CYP3A4, substrate BQ; read-out: Cyp IC50 3A4(BQ)
Sequence of CYP3A4(BQ) (P08684 whole entry): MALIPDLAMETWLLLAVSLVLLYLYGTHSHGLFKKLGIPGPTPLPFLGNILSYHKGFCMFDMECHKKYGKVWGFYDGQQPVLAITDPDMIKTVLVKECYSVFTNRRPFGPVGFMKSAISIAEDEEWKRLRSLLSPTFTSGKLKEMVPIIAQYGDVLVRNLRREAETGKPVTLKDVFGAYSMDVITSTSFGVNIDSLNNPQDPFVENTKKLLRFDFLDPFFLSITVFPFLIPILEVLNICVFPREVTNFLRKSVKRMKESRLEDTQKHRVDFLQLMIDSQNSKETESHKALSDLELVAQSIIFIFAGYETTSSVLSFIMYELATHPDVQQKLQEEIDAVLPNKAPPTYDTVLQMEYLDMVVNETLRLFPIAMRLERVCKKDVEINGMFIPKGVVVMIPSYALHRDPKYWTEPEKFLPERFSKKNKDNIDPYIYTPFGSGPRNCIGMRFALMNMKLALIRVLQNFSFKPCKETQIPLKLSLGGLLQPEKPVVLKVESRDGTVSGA
Procedure: as §1

T1 sequence (Q16620 538-807): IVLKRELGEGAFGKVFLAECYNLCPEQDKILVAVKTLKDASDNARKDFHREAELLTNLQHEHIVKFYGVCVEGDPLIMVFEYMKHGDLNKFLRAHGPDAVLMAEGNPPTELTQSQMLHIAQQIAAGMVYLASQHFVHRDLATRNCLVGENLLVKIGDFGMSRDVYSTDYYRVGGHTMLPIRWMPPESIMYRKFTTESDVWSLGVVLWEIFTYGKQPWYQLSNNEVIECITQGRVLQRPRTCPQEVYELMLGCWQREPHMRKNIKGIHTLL

SMILES	IC50 (BCR-NTRK2 BaF3 cells)	IC50 (CYP1A2)	IC50 (CYP3A4(BQ))
COc1ccc(Nc2ccc(C(=O)c3c[nH]c4ncnc(N[C@@H](C)c5ccc(F)cc5)c34)c(F)n2)cn1 [Compound P-4072, [2-fluoro-6-[(6-methoxy-3-pyridyl)amino]-3-pyridyl]-[4-[[(1S)-1-(4-fluorophenyl)ethyl]amino]-7H-pyrrolo[2,3-d]pyrimidin-5-yl]methanone]	< 0.01 µM	> 10 µM	> 10 µM
Fc1nc(NC2CCC(F)(F)CC2)ccc1Cc1c[nH]c2ncc(Cl)cc12 [Compound P-3013, [5-(5-Chloro-1H-pyrrolo[2,3-b]pyridin-3-ylmethyl)-6-fluoro-pyridin-2-yl]-(4,4-difluoro-cyclohexyl)-amine]	> 10 µM	5 to 10 µM	> 10 µM
CNc1ncnc2[nH]cc(C(=O)c3ccc(NC4CCC(F)(F)CC4)nc3Cl)c12 [Compound P-4058, [2-chloro-6-[(4,4-difluorocyclohexyl)amino]-3-pyridyl]-[4-(methylamino)-7H-pyrrolo[2,3-d]pyrimidin-5-yl]methanone]	< 1 µM	> 10 µM	> 10 µM
CNc1ncnc2[nH]cc(C(=O)c3ccc(NC4CCC(F)(F)CC4)nc3)c12 [Compound P-4089, [6-[(4,4-difluorocyclohexyl)amino]-3-pyridyl]-[4-(methylamino)-7H-pyrrolo[2,3-d]pyrimidin-5-yl]methanone]	< 0.1 µM	> 10 µM	> 10 µM
Cc1cnc2[nH]cc(Cc3cnc(Nc4ccc(F)cc4)nc3)c2c1 [Compound P-3010, (4-Fluoro-phenyl)-[5-(5-methyl-1H-pyrrolo[2,3-b]pyridin-3-ylmethyl)-pyrimidin-2-yl]-amine]	> 10 µM	> 10 µM	> 10 µM
COc1ccc(Nc2ccc(C(=O)c3c[nH]c4ncnc(N5CCOCC5)c34)c(F)n2)cn1 [Compound P-4070, [2-fluoro-6-[(6-methoxy-3-pyridyl)amino]-3-pyridyl]-(4-morpholino-7H-pyrrolo[2,3-d]pyrimidin-5-yl)methanone]	> 1 µM	> 10 µM	> 10 µM
CCCNc1ncnc2[nH]cc(C(=O)c3ccc(Nc4ccc(OC)nc4)nc3F)c12 [Compound P-4068, [2-fluoro-6-[(6-methoxy-3-pyridyl)amino]-3-pyridyl]-[4-(propylamino)-7H-pyrrolo[2,3-d]pyrimidin-5-yl]methanone]	< 0.01 µM	> 10 µM	> 10 µM

The next lines start with the values.

IC50 (BCR-NTRK2 BaF3 cells)	IC50 (CYP1A2)	IC50 (CYP3A4(BQ))	SMILES
< 0.01 µM	> 10 µM	> 10 µM	CCc1ccc(Nc2ccc(C(=O)c3c[nH]c4ncnc(NCC5CC5)c34)c(F)n2)cn1 [Compound P-4118, [4-(cyclopropylmethylamino)-7H-pyrrolo[2,3-d]pyrimidin-5-yl]-[6-[(6-ethyl-3-pyridyl)amino]-2-fluoro-3-pyridyl]methanone]
< 0.01 µM	< 5 µM	> 10 µM	CNc1ncnc2[nH]cc(C(=O)c3ccc(Nc4ccc(C5CC5)nc4)nc3F)c12 [Compound P-4094, [6-[(6-cyclopropyl-3-pyridyl)amino]-2-fluoro-3-pyridyl]-[4-(methylamino)-7H-pyrrolo[2,3-d]pyrimidin-5-yl]methanone]
< 0.01 µM	> 10 µM	> 10 µM	CCc1ccc(Nc2ccc(C(=O)c3c[nH]c4ncnc(NCCOC)c34)c(F)n2)cn1 [Compound P-4119, [6-[(6-ethyl-3-pyridyl)amino]-2-fluoro-3-pyridyl]-[4-(2-methoxyethylamino)-7H-pyrrolo[2,3-d]pyrimidin-5-yl]methanone]
< 0.01 µM	> 10 µM	> 10 µM	CCc1ccc(Nc2ccc(C(=O)c3c[nH]c4ncnc(NCC(C)(C)O)c34)c(F)n2)cn1 [Compound P-4064, [6-[(6-ethyl-3-pyridyl)amino]-2-fluoro-3-pyridyl]-[4-[(2-hydroxy-2-methyl-propyl)amino]-7H-pyrrolo[2,3-d]pyrimidin-5-yl]methanone]
< 0.01 µM	> 10 µM	> 10 µM	COc1ccc(Nc2ccc(C(=O)c3c[nH]c4ncnc(NCC5CCCO5)c34)c(F)n2)cn1 (stereo not drawn) [Compound P-4073, [2-fluoro-6-[(6-methoxy-3-pyridyl)amino]-3-pyridyl]-[4-(tetrahydrofuran-2-ylmethylamino)-7H-pyrrolo[2,3-d]pyrimidin-5-yl]methanone]
< 0.01 µM	> 10 µM	5 to 10 µM	Cc1ccc(Nc2ccc(C(=O)c3c[nH]c4ncnc(NC5CCCCC5)c34)c(F)n2)cn1 [Compound P-4111, [4-(cyclohexylamino)-7H-pyrrolo[2,3-d]pyrimidin-5-yl]-[2-fluoro-6-[(6-methyl-3-pyridyl)amino]-3-pyridyl]methanone]
< 0.1 µM	< 5 µM	> 10 µM	COc1cncc(Nc2ccc(C(=O)c3c[nH]c4ncnc(NC5CC5)c34)c(F)n2)c1 [Compound P-4107, [4-(cyclopropylamino)-7H-pyrrolo[2,3-d]pyrimidin-5-yl]-[2-fluoro-6-[(5-methoxy-3-pyridyl)amino]-3-pyridyl]methanone]
< 0.01 µM	< 5 µM	< 5 µM	CCc1ccc(Nc2ccc(C(=O)c3c[nH]c4ncnc(NC5CCCC5)c34)c(F)n2)cn1 [Compound P-4099, [4-(cyclopentylamino)-7H-pyrrolo[2,3-d]pyrimidin-5-yl]-[6-[(6-ethyl-3-pyridyl)amino]-2-fluoro-3-pyridyl]methanone]
